# Test results reported in patent publication US4863941A, “Glycerol derivatives” (Hoffmann-La Roche Inc., priority 1985, dated 1989).
# Test system: aggregation of the blood platelets brought about by PAF
# Assay: inhibition of PAF-triggered platelet aggregation in platelet-rich plasma (PRP), aggregometer
# Assay type: cell-based
# Conditions: Oryctolagus cuniculus, rabbit PRP, 37° C., sub-maximum dosage of PAF (4 nM), test substance added 2 minutes before PAF
# Description: Platelet-rich plasma (PRP) is prepared by centrifugation of rabbit blood containing 1/10 volumes of 90 mM trisodium citrate. The aggregation of the blood platelets is measured with the aid of an aggregometer at 37° C. while stirring. 2 minutes after the addition of the test sub- stance to the PRP the platelet aggregation is triggered off by a sub-maximum dosage of PAF (4 nM). The IC50 value (μM) given in the following Table corresponds to that concentration of the test substance which reduces to a half the aggregation of the blood platelets brought about by PAF.
row,Structure (SMILES),IC50 [nM]
1,"CCCCCCCCCCCCCCCCCCNC(=O)N(CC(COCCCCn1cc[n+](C)c1)OC(=O)NC)C(C)C (racemic) [Example 8, 1-[4-[(RS)-3-(1-isopropyl-3-octadecylureido)-2-[(methylcarbamoyl)oxy]propoxy]butyl]-3-methylimidazolium bromide]",400
2,"CCCCCCCCCCCCCCCCCCOCC(COC(=O)OCC[N+]1(C)CCCCC1)OC (racemic) [Example 3, 1-[2-[[[(RS)-2-methoxy-3-(octadecyloxy)propoxy]carbonyl]oxy]ethyl]-1-methylpiperidinium chloride]",4000
3,"CCCCCCCCCCCCCCCCCC(=O)OCC(COC(=O)CCC[N+](C)(C)C)NC(C)=O (racemic) [Example 1, [3-[[(RS)-2-acetamido-3-[octadecanoyloxy]propoxy]carbonyl]propyl]trimethylammonium chloride]",5500
4,"CCCCCCCCCCCCCCCCCCNC(=O)N(CC(COCCCC[n+]1ccsc1)OC(=O)NC)C(C)C (racemic) [Example 7, 3-[4-[(RS)-3-(1-isopropyl-3-octadecylureido)-2-[(methylcarbamoyl)oxy]propoxy]butyl]thiazolium bromide]",50
5,"CCCCCCCCCCCCCCCCCCOC(=O)NCC(COC(=O)CCC[N+](C)(C)C)OC(=O)NC (racemic) [Example 4, [3-[[(RS)-2-Methylcarbamoyloxy-3-[1-(octadecyloxy)formamido]propoxy]carbonyl]propyl]trimethylammonium chloride]",1800
6,"CCCCCCCCCCCCCCCCCCOC(=O)N(CC(COCCCC[n+]1ccsc1)OC(=O)NC)C(C)C (racemic) [Example 5, 3-[4-[(RS)-3-[N-isopropyl-1-(octadecyloxy)formamido]-2-[(methylcarbamoyl)oxy]-propoxy]butyl]thiazolium bromide]",40
7,"CCCCCCCCCCCCCCCCCCOC(=O)N(CC(COCCCC[N+](C)(C)C)OC(=O)NC)C(C)C (racemic) [Example 6, [4-[(RS)-3-[N-isopropyl(1-octadecyloxy)formamido]-2-[(methylcarbamoyl)oxy]propoxy]butyl]trimethylammonium bromide]",500
8,"CCCCCCCCCCCCCCCCCCNC(=O)OCC(COC(=O)CCC[N+](C)(C)C)NC(=O)OC (racemic) [Example 2, [3-[[(RS)-2-(1-methoxyformamido)-3-(octadecylcarbamoyloxy)propoxy]carbonyl]propyl]trimethylammonium chloride]",1800
9,"CCCCCCCCCCCCCCCCCCOC(=O)N(CC(COCCCC[n+]1ccsc1)OC(=O)OC)C(C)C (racemic) [Example 9, 3-[4-(RS)-3-(N-isopropyl-1-octadecyloxyformamido)-2-(methoxycarbonyloxy)propoxy]butyl]thiazolium bromide]",60
